Laboratory results from publication PMC12697865, “ZFPL1 Promotes Colorectal Cancer Progression by Stabilizing ASS1 to Drive the Urea Cycle and M2 Macrophage‐Mediated Metastatic Colonization” (Advanced Science, 2025).

Target: T1, zinc finger protein-like 1 (ZFPL1) (Homo sapiens, UniProt O95159)
T1 sequence (O95159 1-310): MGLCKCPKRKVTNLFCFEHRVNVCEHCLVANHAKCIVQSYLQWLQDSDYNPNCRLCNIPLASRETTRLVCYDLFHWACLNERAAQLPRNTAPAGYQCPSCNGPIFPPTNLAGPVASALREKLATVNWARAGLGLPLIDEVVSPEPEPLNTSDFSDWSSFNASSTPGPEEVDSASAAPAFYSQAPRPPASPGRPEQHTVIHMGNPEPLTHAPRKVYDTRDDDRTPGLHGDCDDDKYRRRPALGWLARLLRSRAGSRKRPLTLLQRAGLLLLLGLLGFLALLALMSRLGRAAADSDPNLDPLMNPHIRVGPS
Assay: microscale thermophoresis (MST) with fluorescently labelled ZFPL1
Assay type: binding

For O=C(/C=C/c1ccc(O)c2c1[C@H](C(=O)O[C@H](Cc1ccc(O)c(O)c1)C(=O)O)[C@@H](c1ccc(O)c(O)c1)O2)O[C@H](Cc1ccc(O)c(O)c1)C(=O)O [Salvianolic acid B], the Kd was 8.52 µM.
